{"source": "patent US20060052415A1", "about": "“N-{2-chloro-4-[(6,7-dimethoxy-4-quinolyl)oxy]phenyl}-n'-(5-methyl-3-isoxazolyl)urea salt in crystalline form” (KIRIN BEER KABUSHIKI KAISHA, priority 2002, published 2006)", "key": {"[1]": {"assay": "Stability of crystal against physical stress (grinding in a mortar)", "format": "physicochemical", "settings": "ground in an agate or porcelain mortar", "procedure": "(§1) X-ray diffraction patterns of crystals were taken using Cu-Kα radiation (40 kV, 40 mA, λ=1.541 angstroms) with a powder X-ray diffraction apparatus (X-ray diffraction RINT DMAX-2000, manufactured by Rigaku Industrial Corporation) (scanning speed: 5 degrees/min, scanning range: 5.000 to 40.000 degrees, filter: Kβ filter). Based on powder X-ray diffraction patterns thus obtained, peak positions and relative intensity (%) were determined for peaks with a relative intensity of not less than 20%.\nStability of Crystal Against Physical Stress\nEach of form I to III crystals of hydrochloride, form I crystal of nitrate, form I and II crystals of sulfate, form I crystal of methanesulfonate, form I and II crystals of p-toluenesulfonate, and form I and II crystals of maleate of N-{2-chloro-4-[(6,7-dimethoxy-4-quinolyl)oxy]phenyl}-N′-(5-methyl-3-isoxazolyl)urea was ground in a mortar. In grinding each crystal in the mortar, about 1 mg of each crystal sample was placed and ground in an agate mortar or a porcelain mortar. For each sample before and after grinding, a powder X-ray diffraction chart was measured by method 1 to evaluate the stability of the crystal against physical stress."}, "[2]": {"assay": "Suspending crystal in aqueous methylcellulose solution (administration solution for rodents)", "format": "physicochemical", "text": "In the most preferred embodiment of the present invention, the crystal of a salt according to the present invention is form I crystal of N-{2-chloro-4-[(6,7-dimethoxy-4-quinolyl)oxy]phenyl}-N′-(5-methyl-3-isoxazolyl)urea hydrochloride. This form I crystal of hydrochloride has all physicochemical properties that are desired as pharmaceutical preparations for oral administration. The powder X-ray diffraction pattern of form I crystal of hydrochloride is not similar to that of other crystalline forms of hydrochloride (for example, form II crystal and form III crystal). Therefore, the mixing ratio of crystalline forms can be easily determined. […] Therefore, problems with administration are less likely to occur. Also in this respect, form I crystal of hydrochloride is advantageous."}, "[3]": {"assay": "Hygroscopicity of crystal (weight change on storage)", "format": "physicochemical", "settings": "40° C. and 75% RH; for hygroscopicity (level, in words): 2 weeks, based on weight change", "procedure": "Hygroscopicity of Crystal\nForm I to III crystals of hydrochloride, form I crystal of nitrate, form I and II crystals of sulfate, form I crystal of methanesulfonate, form I and II crystals of p-toluenesulfonate, and form I and II crystals of maleate of N-{2-chloro-4-[(6,7-dimethoxy-4-quinolyl)oxy]phenyl}-N′-(5-methyl-3-isoxazolyl)urea were stored under conditions of 40° C. and 75% RH for 2 weeks. Before and after the storage, the weight of each crystal was measured to determine a difference in weight between before the storage and after the storage.\nFor each crystal, the hygroscopicity was evaluated based on the weight change."}, "[4]": {"assay": "Stability of crystal under heating (73° C.) conditions", "format": "physicochemical", "settings": "stored at 73° C. for 2 weeks", "procedure": "as §1\nStability of Crystal Under Heating (73° C.) Conditions\n(§2) Form I to III crystals of hydrochloride, form I crystal of nitrate, form I and II crystals of sulfate, form I crystal of methanesulfonate, form I and II crystals of p-toluenesulfonate, and form I and II crystals of maleate of N-{2-chloro-4-[(6,7-dimethoxy-4-quinolyl)oxy]phenyl}-N′-(5-methyl-3-isoxazolyl)urea were stored at 73° C. for 2 weeks. […]"}, "[5]": {"assay": "Stability of crystal under high humidity (40° C., 75% RH) conditions", "format": "physicochemical", "settings": "stored at 40° C. and 75% RH for 2 weeks", "procedure": "as §1\nStability of Crystal Under High Humidity (40° C., 75% RH) Conditions\nas §2, with “under conditions of 40°” for “at 73°”, “C. and 75% RH” for “C.”"}, "tumor": {"system": "tumor", "settings": "in vivo; cited from earlier work"}, "[6]": {"settings": "listed as form I crystal of hydrochloride, hydrochloride"}}, "note": "Entries after “also recorded” stand apart in the source; their conditions may differ.", "data": [{"molecule": "COc1cc2nccc(Oc3ccc(NC(=O)Nc4cc(C)on4)c(Cl)c3)c2cc1OC.Cl", "note": "[Form I crystal of hydrochloride, N-{2-chloro-4-[(6,7-dimethoxy-4-quinolyl)oxy]phenyl}-N′-(5-methyl-3-isoxazolyl)urea hydrochloride]", "values": [{"measurement": "stability of crystal against physical stress (powder X-ray diffraction before and after grinding)", "setting": "[1]; [6]", "result": "excellent stability"}, {"measurement": "formation of gel on suspending", "setting": "[2]", "result": "does not undergo a deterioration that results in the formation of gel"}, {"measurement": "hygroscopicity (level, in words)", "setting": "[3]; hydrochloride", "result": "low level of hygroscopicity; also recorded: on a low level"}, {"measurement": "weight change (hygroscopicity) After 1 week", "setting": "[3]; hydrochloride", "result": 0.01, "unit": "%"}, {"measurement": "weight change (hygroscopicity) After 2 weeks", "setting": "[3]; hydrochloride", "result": 0.00, "unit": "%"}, {"measurement": "weight change (hygroscopicity) After 2 days", "setting": "[3]; hydrochloride", "result": 0.00, "unit": "%"}, {"measurement": "stability of crystal under high temperature conditions (change of powder X-ray diffraction chart)", "setting": "[4]; [6]", "result": "excellent stability"}, {"measurement": "stability of crystal under high humidity conditions (change of powder X-ray diffraction chart)", "setting": "[5]; [6]", "result": "excellent stability"}]}, {"molecule": "COc1cc2nccc(Oc3ccc(NC(=O)Nc4cc(C)on4)c(Cl)c3)c2cc1OC", "note": "[N-{2-chloro-4-[(6,7-dimethoxy-4-quinolyl)oxy]phenyl}-N′-(5-methyl-3-isoxazolyl)urea]", "values": [{"measurement": "tumor enhancement inhibitory activity", "setting": "tumor", "result": "has tumor enhancement inhibitory activity in vivo"}]}, {"molecule": "COc1cc2nccc(Oc3ccc(NC(=O)Nc4cc(C)on4)c(Cl)c3)c2cc1OC.O=[N+]([O-])O", "note": "[Form I crystal of nitrate, N-{2-chloro-4-[(6,7-dimethoxy-4-quinolyl)oxy]phenyl}-N′-(5-methyl-3-isoxazolyl)urea nitrate]", "values": [{"measurement": "stability of crystal against physical stress (powder X-ray diffraction before and after grinding)", "setting": "[1]", "result": "excellent stability"}, {"measurement": "hygroscopicity (level, in words)", "setting": "[3]", "result": "highly hygroscopic"}, {"measurement": "weight change (hygroscopicity) After 1 week", "setting": "[3]", "result": 2.22, "unit": "%"}, {"measurement": "weight change (hygroscopicity) After 2 weeks", "setting": "[3]", "result": 2.22, "unit": "%"}, {"measurement": "weight change (hygroscopicity) After 2 days", "setting": "[3]", "result": 2.04, "unit": "%"}, {"measurement": "stability of crystal under high temperature conditions (change of powder X-ray diffraction chart)", "setting": "[4]", "result": "excellent stability"}, {"measurement": "stability of crystal under high humidity conditions (change of powder X-ray diffraction chart)", "setting": "[5]", "result": "excellent stability"}]}]}
